Test results from patent publication US12103939B2, “Solid pharmaceutical gold-based composition” (KING FAHD UNIVERSITY OF PETROLEUM AND MINERALS, priority 2019, dated 2024).

Legend:
[1] = tested on: MG-63 osteosarcoma cell line; test: Cytotoxicity assay (MTT, 72 h); format: cell-based, human; conditions: MG63, MTT after 72 h, mean (SD); read-out: Half-maximal inhibitory concentration (IC50)
Method: (§1) R-ME-180 and A2780cis cells were maintained in 1 μM cisplatin. Adipose-derived stromal cells were maintained in MSCGM BulletKit medium (Lonza). All cell lines were cultured at 37° C. in a 5% CO2, fully humidified atmosphere
(§2) Cell lines were seeded in 96-well flat-bottomed microplates in 100 μL culture medium at the following densities: DU145, PC3 and MCF-7 cells (2.5×10^3 cells/well); A2780, A2780cis, ME-180, R-ME-180 and A549 cells (4.0×10^3 cells/well); and MG-63 cells (2.0×10^3 cells/well). Cells were allowed to adhere for 24 h. Then the medium was replaced with fresh medium alone or with one of the gold(III) complexes at increasing concentrations from 0 to 100 μM. The reference drugs cisplatin (0-100 μM) and doxorubicin (0-1 μM) were included as positive controls for growth inhibition. After 72 h, cell viability was assayed using the MTT assay.
(§3) See Chou T. C.; Talalay P. Quantitative analysis of dose-effect relationships: the combined effects of multiple drugs or enzyme inhibitors. […] 22, 27-55, incorporated herein by reference in its entirety. IC50 values were reported as mean (SD). For drug-resistance cell lines, fold resistance (FR) was calculated as the ratio of the IC50 of the resistant cell line to the IC50 of the parental cell line.

[2] = tested on: PC3 prostate cancer cell line; test: Cytotoxicity assay (MTT, 72 h); format: cell-based, human; conditions: PC3, MTT after 72 h, mean (SD); read-out: Half-maximal inhibitory concentration (IC50)
Method: as §1, §2, §3

[3] = tested on: cervical cancer cell line ME-180; test: Cytotoxicity assay (MTT, 72 h); format: cell-based, human; conditions: ME-180, MTT after 72 h, mean (SD)
Method: as §1, §2, §3

[4] = tested on: cisplatin- and doxorubicin-resistant A2780cis clone; test: Cytotoxicity assay (MTT, 72 h); format: cell-based, human; conditions: for IC50: A2780cis, MTT after 72 h, mean (SD); for FR (A2780cis/A2780), fold resistance: IC50 A2780cis / IC50 A2780
Method: as §1, §2, §3

[5] = tested on: MCF-7 breast cancer cell line; test: Cytotoxicity assay (MTT, 72 h); format: cell-based, human; conditions: MCF-7, MTT after 72 h, mean (SD); read-out: Half-maximal inhibitory concentration (IC50)
Method: as §1, §2, §3

[6] = tested on: A549 lung cancer cell line; test: Cytotoxicity assay (MTT, 72 h); format: cell-based, human; conditions: A549, MTT after 72 h, mean (SD); read-out: Half-maximal inhibitory concentration (IC50)
Method: as §1, §2, §3

[7] = tested on: cisplatin-resistant R-ME-180 clone; test: Cytotoxicity assay (MTT, 72 h); format: cell-based, human; conditions: for FR (R-ME-180/ME-180), fold resistance: IC50 R-ME-180 / IC50 ME-180; for IC50: R-ME-180, MTT after 72 h, mean (SD)
Method: as §1, §2, §3

[8] = tested on: DU145 prostate cancer cell line; test: Cytotoxicity assay (MTT, 72 h); format: cell-based, human; conditions: DU145, MTT after 72 h, mean (SD); read-out: Half-maximal inhibitory concentration (IC50)
Method: as §1, §2, §3

[9] = tested on: ovarian cancer cell line A2780; test: Cytotoxicity assay (MTT, 72 h); format: cell-based, human; conditions: A2780, MTT after 72 h, mean (SD)
Method: as §1, §2, §3

lysozyme = target: T1, lysozyme (Gallus gallus, UniProt P00698); test: Voltammetry, interaction with lysozyme; conditions: 100 μM complex
T1 construct: purchased Sigma-Aldrich
Method: The pH of buffers was monitored on a Accumet XL50 pH meter. A GR-2000 electrical balance was used to weigh the various chemicals. Electrochemical measurements for cyclic voltammetry and square wave voltammetry were performed using Autolab instruments (Metrohm; Netherlands). […] The GCE was polished as a mirror-like surface with alumina slurry on a synthetic cloth before every electrochemical analysis. Square wave voltammetry and cyclic voltammetry were scanned from 0 to 1.3 V for the various analyses. Elemental analyses of gold(III) complexes (C1-C8) were performed on PerkinElmer Series 11 (CHNS/O), Analyzer 2400.
The electrochemical investigation of the interactions between the gold(III) complexes (C1-C8) and lysozyme, tryptophan and guanine was performed using the Autolab instrument described above, with a three-electrode system (CH Instruments): platinum wire counter electrode (CHI115), Ag/AgCl reference electrode (in 3 M KCl, CHI111) and glassy carbon working electrode (CHI112) inserted into a 5.0 ml glass cell. Solutions of 1 mM lysozyme, 5 mM tryptophan and 5 mM guanine were prepared in double distilled water, and the experiment was performed in 0.1 M phosphate buffer at pH 6.8.

PC3 cells = test: Cellular uptake of gold(III) complexes (ICP-MS); format: cell-based, human; conditions: 3 μM, 2 h, ICP mass spectrometry
Method: After treatment, monolayers were washed with ice-cold PBS four times, and the cells were detached with trypsin-EDTA and washed three times with ice-cold PBS by centrifugation. The cell pellet was solubilized in 700 μL of HNO3—HCl solution (1:3 molar ratio) for 2 h at 100° C., and then diluted with 4 mL water. Samples were analyzed for gold on an Agilent 7500 inductively coupled plasma mass spectrometer (ICP-MS). Results were expressed as ng gold/10^6 cells. The experiment was performed a total of two times and the results were expressed as mean and SD.

[10] = CV, 0 μM lysozyme, 0.1 M phosphate buffer pH 6.8

T1 sequence (P00698 19-147): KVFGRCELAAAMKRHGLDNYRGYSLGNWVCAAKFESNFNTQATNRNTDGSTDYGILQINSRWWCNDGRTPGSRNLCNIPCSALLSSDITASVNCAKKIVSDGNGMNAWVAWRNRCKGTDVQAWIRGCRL

SMILES | IC50 [1] [µM] | IC50 [2] [µM] | IC50 [3] [µM] | IC50 [4] [µM] | FR (A2780cis/A2780), fold resistance [4] | IC50 [5] [µM] | IC50 [6] [µM] | FR (R-ME-180/ME-180), fold resistance [7] | IC50 [7] [µM] | IC50 [8] [µM] | IC50 [9] [µM] | Voltammetry peak potential (lysozyme; [10]) [V] | Voltammetry peak potential (lysozyme; CV, 1 μM lysozyme, pH 6.8) [V] | Voltammetry peak potential (lysozyme; CV, 4 μM lysozyme, pH 6.8) [V] | Voltammetry peak potential (lysozyme; CV, 10 μM lysozyme, pH 6.8) [V] | Voltammetry peak potential (lysozyme; SWV, 0 μM lysozyme, pH 6.8) [V] | Voltammetry peak potential (lysozyme; SWV, 1 μM lysozyme, pH 6.8) [V] | Voltammetry peak potential (lysozyme; SWV, 4 μM lysozyme, pH 6.8) [V] | Voltammetry peak potential (lysozyme; SWV, 10 μM lysozyme, pH 6.8) [V] | further results
Oc1ccc[n+]2c1-c1c(O)ccc[n+]1[Au-]2([Cl])[Cl].[Cl-] [C1, [Au(BPYH)(Cl)2]Cl] | 43 | 28.3 | 70 | 24 | 1.0 | 59 | > 80 | 1.0 | 72 | 39 | 23 | 0.739 | 0.8142 | 0.8319 | 0.8762 | 0.7934 | 0.8034 | 0.8387 | 0.8639 | –
CN(C)C1=[S+][Au-]2([S]1)[n+]1cccc(O)c1-c1c(O)ccc[n+]12.[Cl-].[Cl-] [C2, [Au(BPYH)(DMDTC)]Cl2] | 3.8 | 1.5 | 14 | 0.8 | 0.9 | 2.3 | 6.1 | 1.5 | 21 | 2.8 | 0.9 | 0.7921 | 0.8009 | 0.8186 | 0.8319 | 0.7883 | 0.7934 | 0.8085 | 0.8135 | –
CCN(CC)C1=[S+][Au-]2([S]1)[n+]1cccc(O)c1-c1c(O)ccc[n+]12.[Cl-].[Cl-] [C3, [Au(BPYH)(DEDTC)]Cl2] | 1.2 | 1.3 | – | 0.4 | 1.1 | 1.7 | 3.8 | 1.3 | 3.8 | 3.5 | – | 0.7965 | 0.8098 | 0.8231 | 0.8363 | 0.7934 | 0.8034 | 0.8135 | 0.8236 | –
Oc1ccc[n+]2c1-c1c(O)ccc[n+]1[Au-]21[S]C(N(Cc2ccccc2)Cc2ccccc2)=[S+]1.[Cl-].[Cl-] [C4, [Au(BPYH)(DBDTC)]Cl2] | 12.3 | 8.5 | 30 | 8.2 | 1.1 | 13 | 25 | 1.0 | 30 | 6.4 | 7.3 | 0.7965 | 0.8098 | 0.8186 | 0.8275 | 0.7883 | 0.7934 | 0.8085 | 0.8135 | –
[Cl-].[Cl-].[Cl][Au-]1([Cl])[n+]2ccc[n+]3c2-c2[n+]1ccc[n+]2[Au-]3([Cl])[Cl] [C5, [Au2(BPM)(Cl)4]Cl2] | 26 | > 80 | > 80 | 16.2 | 1.1 | 65 | > 80 | – | > 80 | > 80 | 15.4 | – | – | – | – | – | – | – | – | –
CC[N+](CC)=C1[S][Au-]2([S]1)[n+]1ccc[n+]3c1-c1[n+]2ccc[n+]1[Au-]31[S]C(=[N+](CC)CC)[S]1.[Cl-].[Cl-].[Cl-].[Cl-] [C7, [Au2(BPM)(DEDTC)2]Cl4] | 0.7 | 0.8 | – | 0.3 | 0.9 | 0.6 | 1.4 | 0.9 | 4.1 | 0.8 | – | – | – | – | – | – | – | – | – | amount of internalized gold (cellular uptake) (PC3 cells): greater uptake
[Cl-].[Cl-].[Cl-].[Cl-].c1ccc(C[N+](Cc2ccccc2)=C2[S][Au-]3([S]2)[n+]2ccc[n+]4c2-c2[n+]3ccc[n+]2[Au-]42[S]C(=[N+](Cc3ccccc3)Cc3ccccc3)[S]2)cc1 [C8, [Au2(BPM)(DBDTC)2]Cl4] | 5.8 | 19.5 | 15 | 5.2 | 1.4 | 9.5 | 23 | 1.0 | 16 | 22.8 | 3.8 | – | – | – | – | – | – | – | – | –
N.N.[Cl][Pt][Cl] [Cisplatin, reference compound] | – | 3.3 | 15 | 10.4 | 6.9 | – | – | 4.5 | 68 | 4.5 | 1.5 | – | – | – | – | – | – | – | – | –
COc1cccc2c1C(=O)c1c(O)c3c(c(O)c1C2=O)C[C@@](O)(C(=O)CO)C[C@@H]3O[C@H]1C[C@H](N)[C@H](O)[C@H](C)O1 [Doxorubicin, reference compound] | – | – | – | – | 9.0 | – | – | – | – | – | – | – | – | – | – | – | – | – | – | IC50 ([4]; Homo sapiens): 0.12 µM; IC50 ([9]; Homo sapiens): 0.02 µM
